According to paper PMC4497601 (Angewandte Chemie (International Ed. in English), 2014):
Entries after “also recorded” stand apart in the source; their conditions may differ. Values belong to the compound of their own block, whether it stands above or below them.

Columns and labels:
Hsp90 ATP binding site = Hsp90 ATP binding site (Homo sapiens, UniProt P07900); experiment: LLS screening in competition mode; settings: Δ=2.5 s; for binding to Hsp90 in LLS competition screening of mixtures: 500 μM spy ligand II, 2.5 μM Hsp90, 600 μM of each ligand
Hsp90 [1] = settings: read-out: KD ITC; cited from earlier work
[2] = target: N-terminal ATPase domain of heat shock protein 90 (Hsp90) (Homo sapiens, UniProt P07900); experiment: LLS NMR direct titration of ligand against Hsp90; format: binding
Hsp90 [3] = settings: cited from earlier work

binding to Hsp90 in LLS competition screening of mixtures (Hsp90 ATP binding site): nonbinding
Compound: NCc1ccc(F)c(F)c1 [3,4-difluorobenzylamine]

Compound: Nc1ncccn1 [Ligand III, 2-aminopyrimidine]
Kd (Hsp90 [1]): > 1000 µM

Kd [2]: 15 ± 10 µM
RLLS bound ([2]; bound ligand, fitted from direct titration with 10 μM Hsp90): 77 ± 6 s⁻¹
RLLS free ([2]; free ligand): 731±7 ms^−1
Compound: Nc1ncnc2c1ncn2[C@@H]1O[C@H](COP(=O)(O)OP(=O)(O)O)[C@@H](O)[C@H]1O [Ligand I, Adenosine diphosphate]
Kd (Hsp90 [1]): 10 µM

binding to Hsp90 in LLS competition screening of mixtures (Hsp90 ATP binding site): weakly binding
Compound: Cc1cnc(N)c(Br)c1 [Ligand V, 3-bromo-5-methylpyridin-2-ylamine]
binding to Hsp90 identified by fragment screening (Hsp90 [3]): weak ADP-competitive binders

binding to Hsp90 in LLS competition screening of mixtures (Hsp90 ATP binding site): nonbinding
Compound: N[C@@H](Cc1ccc(O)cc1)C(=O)O [tyrosine]

binding to Hsp90 in LLS competition screening of mixtures (Hsp90 ATP binding site): nonbinding
Compound: N=C(N)c1ccc(C(F)(F)F)cc1 [4-trifluoromethylbenzamidine]

Compound: CC(C)c1cc(C(=O)N2Cc3ccc(CN4CCN(C)CC4)cc3C2)c(O)cc1O [AT13387]
LLS signal of spy ligand II on addition of competitor (Hsp90 ATP binding site; 500 μM ligand II, 10 μM Hsp90, 10 μM competitor): almost completely restored; also recorded: partly restored
